Experimental findings from PubChem BioAssay (NCI) are described below.

Holding throughout (experiment): inhibition of tumour cell growth, NCI panel, 48 h
Assay [1] concerns HCC-2998 colon.
Assay [2] has as its system HCT-15 colon.
Assay [3] relates to HS 578T breast.
Assay [4] concerns MCF7 breast.
Assay [5] deals with MDA-MB-231 breast.
The test system of assay [6] is OVCAR-5 ovarian.
The subject of assay [7] is SF-295 CNS.
In assay [8] the test system is SK-MEL-28 melanoma.
Assay [9] concerns SK-MEL-5 melanoma.
In assay [10] the test system is TK-10 renal.

Structures are written as SMILES.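 Tested at 5 concentrations; 48 h exposure; 96-well plates; endpoints linearly interpolated, else capped at highest concentration. Here, GI50 denotes the concentration required for 50% inhibition of growth. Definition used: TGI = concentration required for complete inhibition of growth.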 Bounds are passed on as bounds.

For `O=c1cc(-c2ccccc2)oc2cc(OCCCCCN3CCOCC3)cc(O)c12`, the TGI is 8.38 µM in assay [1]; greater than 100 µM in assay [2]; greater than 100 µM in [3]; greater than 100 µM in assay [4]; 63.7 µM in assay [5]; 95.3 µM in assay [6]. In addition, the TGI in assay [7], in assay [8], in [9] and in [10] was greater than 100 µM each time. Further, the GI50 in [2] is 42 µM; in assay [3] it was 41.3 µM; in assay [4], 88.4 µM; in [5], 15.6 µM; in assay [6] it was 18.1 µM; in assay [7] it was 40.2 µM. For the same compound, the GI50 was greater than 100 µM in assay [8], greater than 100 µM in [9] and 51.4 µM in assay [10].
As for `CCN(CC)S(=O)(=O)c1cccc(-c2ccc3c(NC(=O)C4CC4)n[nH]c3c2)c1`, the GI50 in assay [1] was greater than 6.25 µM; in assay [2], 2.4 µM; in assay [3], 1.83 µM; in assay [4], 1.19 µM; in [5] it was 2.84 µM; in assay [6], 5.69 µM. Moreover, the GI50 in assay [7] is 1.66 µM; in assay [8], 3.06 µM; in assay [9], 0.986 µM; in assay [10], 5.06 µM. For the same compound, the TGI in [1], in [2], in assay [3], in assay [4], in assay [5] and in [6] was greater than 6.25 µM in each case. Moreover, the TGI in [7] is greater than 6.25 µM; in [8] it was greater than 6.25 µM; in [9], 3.58 µM; in assay [10] it was greater than 6.25 µM.
On to `O=C(NCc1ccco1)C1CCN(S(=O)(=O)c2ccc(Cl)cc2)CC1`, for which the GI50 in [1] is greater than 100 µM; in assay [2], 39.6 µM; in [3], greater than 100 µM; in assay [4], 37.8 µM; in [5] it was greater than 100 µM; in assay [6] it was greater than 100 µM. The GI50 in [7] is 81.6 µM; in assay [8] it was greater than 100 µM; in [9] it was 53.5 µM; in assay [10], greater than 100 µM. The TGI in [1], in assay [2], in assay [3], in [4], in assay [5] and in assay [6] was greater than 100 µM each time. Moreover, the TGI in assay [7], in assay [8], in assay [9] and in [10] was greater than 100 µM throughout.
As to `Cc1ccc(NC(=S)C#N)c(C)c1`, the TGI in [1], in assay [2], in assay [3], in [4], in assay [5] and in assay [6] was greater than 100 µM each time. The TGI in assay [7], in [8], in assay [9] and in assay [10] was greater than 100 µM in each case.
Consider `Cc1nc2sc(C(=O)Nc3ccccc3)c(N)c2cc1C(O)c1ccccc1` (centres undefined), for which the GI50 in [1] is 0.329 µM; in [2], 0.17 µM; in assay [3] it was 0.325 µM; in assay [4] it was 0.091 µM; in assay [5] it was 0.411 µM; in assay [6], 0.565 µM. Besides, the GI50 in assay [7] is 0.252 µM; in [8] it was 10.8 µM; in [9] it was 0.338 µM; in assay [10], 6.03 µM. Further, the TGI in [1] is 6.27 µM; in [2] it was greater than 100 µM; in assay [3], greater than 35.1 µM; in assay [4] it was 19.1 µM; in assay [5], greater than 64.6 µM; in [6], greater than 88.1 µM. In addition, the TGI is 4.29 µM in assay [7], greater than 100 µM in assay [8], 1.63 µM in assay [9] and greater than 100 µM in assay [10].
Regarding `COc1c(B(O)O)cccc1-c1nc2ccc3[nH]ncc3c2c2c1CCCC2`, the GI50 is 2.35 µM in assay [1]; 2.88 µM in assay [2]; 0.0622 µM in assay [3]; 2.04 µM in [4]; 0.0201 µM in [5]; 2.45 µM in [6]. Further, the GI50 is 1.89 µM in assay [7], 3.42 µM in assay [8], 3.18 µM in assay [9] and 0.0448 µM in assay [10]. The TGI was found to be 6.12 µM in assay [1]; 14.2 µM in assay [2]; 7.92 µM in assay [3]; 13 µM in assay [4]; 25.1 µM in [5]; 25.2 µM in [6]. Also, the TGI in [7] is 12.6 µM; in [8], 10.2 µM; in [9] it was 12.5 µM; in assay [10] it was 16.4 µM.
